Assay results published in patent US20250205316A1, “COLLOIDAL FIBRIN NANOPARTICLE COMPOSITIONS AND USES” (NORTH CAROLINA STATE UNIVERSITY, priority 2023, published 2025).
Like-named read-outs stand apart in the source and are kept apart here.

Columns and labels:
[1] = system: HUVECs and HLFs; test: Microfluidic vasculogenesis assay with free tazarotene; format: cell-based, human
Protocol: The effects of tazarotene dosage on vascular network formation were investigated through the use of an established microfluidic vasculogenesis model (FIG. 12A). HUVECs and HLFs were embedded in 2 mg/mL human fibrin gels made 25 mM HEPES buffer and 0.5 U/mL thrombin. Media channels in the microdevice (FIG. 12A) were filled with HUVEC media supplemented with free tazarotene. Daily media changes and brightfield imaging were completed until cells were fixed with 4% paraformaldehyde at 1 week after seeding. Cells were permeabilized with 0.3% Triton X-100 (Sigma), immunostained with PEKAM-1 antibody (ThermoFisher), and stained with phalloidin (Invitrogen) and DAPI (Invitrogen) in order to visualize networks of both HUVECs and HLFs. Imaging was performed using a confocal microscope with a 10× objective. At least 3 devices were imaged for each experimental group and 3 images were taken per device. ImageJ was used to quantify vascular network characteristics (average segment length, average segment width, average number of branch points, and total endothelial area).

[2] = system: HUVECs; test: HUVEC morphology and attachment on tazarotene-loaded thin films; format: cell-based, human
Protocol: The effects of tazarotene released from bulk fibrin gels on individual cellular morphology was determined through the low-density culture of HUVECs on thin films of loaded fibrin gels. Fibrin gels with varying concentrations of bulk tazarotene incorporated were allowed to polymerize between two clean glass coverslips for 1 hour, in order to form thin films. Thin films of 80 μL were made using 2 mg/ml human fibrinogen (Enzyme Research Laboratories), HEPES buffer (25 mM), and 0.5 U/ml human thrombin. Upon removal of one glass coverslip, the remaining glass and attached gel were placed within the well of a 12-well plate and rinsed with PBS. HUVECs (15,000 cells/well) were cultured for 16 hours, at which point they were fixed and stained. Images of cells were captured at 10× using an EVOS FL Auto Imaging System, with at least 5 images taken per thin film. In order to validate the nanoparticle release of tazarotene from FBNs, 80 μL FBN gel (330 M particles/mL) thin films were formed with different relative ratios of tazarotene-loaded to unloaded FBNs. All other elements of the procedure were the same.

[3] = fibrin gel thin films bulk loaded with tazarotene, 16 hours

## CCOC(=O)c1ccc(C#Cc2ccc3c(c2)C(C)(C)CCS3)nc1 [tazarotene]
[1]
  average network segment width: 36±11 μm
[1]; 20 nM free tazarotene, 1 week
  average segment length: 218±54 μm
[1]; 2 μM free tazarotene, 1 week
  average network segment width: 23±4 μm
  average segment length: 226±40 μm
  endothelial network area: 130167±61886 μm^2
[1]; 20 μM free tazarotene, 1 week
  endothelial network area: 206,763±51,803 μm^2
[1]; 200 μM free tazarotene, 1 week
  average network segment width: 31±7 μm
  endothelial network area: 240,770±44,210 μm^2
[1]; 2000 μM free tazarotene, 1 week
  endothelial network area: 230,087±51,803 μm^2
[1]; across tazarotene concentrations
  branch points: No significant differences
[2]; [3]
  concentration with the most cell spreading: 200 nM
  effect on cellular attachment: no significant effect
[2]; with increasing concentrations
  cell circularity: less circularity
  cell perimeter: greater perimeter
